US20120115175A1, “METHODS FOR DIAGNOSING ELEVATED RIGHT OR LEFT VENTRICULAR FILLING PRESSURE” (Tufts Medical Center, Inc., priority 2010, published 2012)
Numbered stars: 1 amine (or outer) side, 2 acyl side, 3 side chain; on linkers, the order of the positions; unused ones are H or OH. Bridge positions count the residues as written; N and C are the ends. Square brackets hold non-standard residues; d marks the D form. Peptide text beside a SMILES is read from it. I, II: the chains in the order shown. Actinocin(9to1) = Cc1c2oc3c(C)ccc(C(=O)[*:1])c3nc-2c(C(=O)[*:2])c(N)c1=O; NMeV = CN[C@H](C(=O)O)C(C)C; Sar = CNCC(=O)O

Tested on: human cardiac fibroblasts (hCF)
Assay: Cyclic mechanical stretch of human cardiac fibroblasts: endoglin mRNA (qRT-PCR), endoglin protein (Western blot), sEng release (ELISA)
Format: cell-based
Details: for stretch-induced endoglin mRNA expression: pre-treated 1 μM for 2 hours prior to mechanical stretch (10% cyclic stretch, 1 Hz), qRT-PCR
Method: As a first step towards understanding increased endoglin expression in heart failure, we exposed cardiac fibroblasts to cyclic mechanical stretch in vitro using a FlexCell apparatus. Briefly, human cardiac fibroblasts (hCF) were cultured onto silastic membranes and exposed to 10% cyclic stretch (1 Hz) for various time points in fibroblast basal media (FBM). We identified a rapid increase in sEng release by enzyme-linked immunosorbent assay (ELISA), followed by increased endoglin mRNA expression by quantitative real-time PCR (qRT-PCR) (FIG. 7).
To begin exploring the mechanism underlying stretch-induced endoglin expression, we pre-treated cultured hCF in FBM with actinomycin-D (Act-D; 1 μM), SB-431542 (an ALK-5 inhibitor; 1 μM), or anti-TGFβ1 antibodies (10 ng/mL, R&D Systems) for 2 hours prior to mechanical stretch. […] Furthermore, ERK-inhibition with 10 μM PD98059 attenuated stretch-induced mEng protein expression and sEng release by Western blot and ELISA (FIG. 9).

[1] = hCF in FBM, pre-treated 1 μM for 2 hours prior to mechanical stretch, ELISA

| SMILES | endoglin protein expression (hCF in FBM, pre-treated 1 μM for 2 hours prior to mechanical stretch) | stretch-induced endoglin mRNA expression (hCF in FBM) | sEng release [1] | stretch-induced sEng release (hCF, 10 μM, ELISA) | stretch-induced mEng protein expression (hCF, 10 μM, Western blot) |
| --- | --- | --- | --- | --- | --- |
| Cc1c2oc3c(C)ccc(C(=O)N[C@@H]4C(=O)N[C@H](C(C)C)C(=O)N5CCC[C@H]5C(=O)N(C)CC(=O)N(C)[C@@H](C(C)C)C(=O)O[C@@H]4C)c3nc-2c(C(=O)N[C@@H]2C(=O)N[C@H](C(C)C)C(=O)N3CCC[C@H]3C(=O)N(C)CC(=O)N(C)[C@@H](C(C)C)C(=O)O[C@@H]2C)c(N)c1=O [Act-D, actinomycin-D] (I: T[dV]P[Sar][NMeV] / II: T[dV]P[Sar][NMeV]; ester I:1-I:C, II:1-II:C; linker I:N-II:N via Actinocin(9to1)) | minimal effect | abolished | minimal effect | – | – |
| COc1cccc(-c2cc(=O)c3ccccc3o2)c1N [PD98059] | – | – | – | attenuated | attenuated |
| NC(=O)c1ccc(-c2nc(-c3ccc4c(c3)OCO4)c(-c3ccccn3)[nH]2)cc1 [SB-431542] | – | partially attenuated | failed to inhibit | – | – |
